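Each compound was tested at five concentrations against cells in 96-well plates for 48 hours. The concentration for full growth arrest is given as TGI.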
Experiments:
Assay in all cases: growth of human tumour cells (NCI), 48 h
[1] = tested on: SNB-19 CNS
[2] = tested on: HCC-2998 colon
[3] = tested on: M14 melanoma
[4] = tested on: SN12C renal
[5] = tested on: CCRF-CEM leukemia
[6] = tested on: SK-OV-3 ovarian
[7] = tested on: SF-539 CNS
[8] = tested on: A549 NSCLC
[9] = tested on: CAKI-1 renal
[10] = tested on: UO-31 renal
[11] = tested on: TK-10 renal
[12] = tested on: SNB-75 CNS
[13] = tested on: MDA-MB-231 breast
[14] = tested on: NCI-H460 lung
[15] = tested on: SW-620 colon
[16] = tested on: UACC-62 melanoma
[17] = tested on: DU-145 prostate
[18] = tested on: MCF7 breast
[19] = tested on: NCI-H23 lung
[20] = tested on: M19-MEL melanoma

## COc1cc(CCNC2=CC(=O)c3ncccc3C2=O)ccc1O
[1]
  TGI: 17.7 µM
[2]
  TGI: 16.8 µM
[3]
  TGI: 3.05 µM
[4]
  TGI: 6.71 µM
[5]
  TGI: > 100 µM
[6]
  TGI: 41.7 µM
[7]
  TGI: 7.83 µM
[8]
  TGI: 6.44 µM
[9]
  TGI: 12 µM
[10]
  TGI: 17.3 µM
[11]
  TGI: 70.8 µM
[12]
  TGI: 4.73 µM
[13]
  TGI: 6.24 µM
[14]
  TGI: 2.71 µM
[15]
  TGI: 12.1 µM
[16]
  TGI: 3.8 µM
[17]
  TGI: 12.3 µM
[18]
  TGI: 6.06 µM
[19]
  TGI: 11.8 µM

## NS(=O)(=O)c1ccc(NNc2c3ccccc3nc3c(C(=O)Nc4ccc(S(N)(=O)=O)cc4)cccc23)cc1
[1]
  TGI: > 100 µM
[2]
  TGI: 86.7 µM
[3]
  TGI: > 100 µM
[4]
  TGI: > 100 µM
[5]
  TGI: 80.3 µM
[6]
  TGI: > 100 µM
[7]
  TGI: > 100 µM
[8]
  TGI: > 100 µM
[9]
  TGI: > 100 µM
[10]
  TGI: > 100 µM
[11]
  TGI: > 100 µM
[12]
  TGI: > 100 µM
[13]
  TGI: > 100 µM
[14]
  TGI: > 100 µM
[15]
  TGI: > 100 µM
[16]
  TGI: > 100 µM
[17]
  TGI: > 100 µM
[18]
  TGI: > 100 µM
[19]
  TGI: > 100 µM

## O=c1ccn([C@@H]2C[C@H](CO)CS(=O)C2)c(=O)[nH]1 (stereo partly drawn)
[20]
  TGI: > 100 µM
[1]
  TGI: > 100 µM
[2]
  TGI: > 100 µM
[3]
  TGI: > 100 µM
[4]
  TGI: > 100 µM
[5]
  TGI: > 100 µM
[6]
  TGI: > 100 µM
[7]
  TGI: > 100 µM
[8]
  TGI: > 100 µM
[9]
  TGI: > 100 µM
[10]
  TGI: > 100 µM
[11]
  TGI: > 100 µM
[12]
  TGI: > 100 µM
[14]
  TGI: > 100 µM
[15]
  TGI: > 100 µM
[16]
  TGI: > 100 µM
[19]
  TGI: > 100 µM

## N#CC(NNC(=O)c1ccccc1O)c1ccccc1O (stereo not drawn)
[20]
  TGI: 27.2 µM
[3]
  TGI: 29.7 µM
[4]
  TGI: > 100 µM
[5]
  TGI: > 100 µM
[6]
  TGI: > 100 µM
[7]
  TGI: 40.9 µM
[8]
  TGI: > 100 µM
[9]
  TGI: 28.4 µM
[10]
  TGI: 48.4 µM
[11]
  TGI: > 100 µM
[12]
  TGI: > 100 µM
[14]
  TGI: > 100 µM
[15]
  TGI: > 100 µM
[16]
  TGI: 16.9 µM
[19]
  TGI: > 100 µM

## NC(Cc1c2ccccc2cc2ccccc12)C(=O)O (stereo not drawn)
[1]
  TGI: > 100 µM
[2]
  TGI: > 100 µM
[3]
  TGI: > 100 µM
[4]
  TGI: > 100 µM
[5]
  TGI: > 100 µM
[6]
  TGI: > 100 µM
[7]
  TGI: > 100 µM
[8]
  TGI: > 100 µM
[9]
  TGI: > 100 µM
[10]
  TGI: > 100 µM
[11]
  TGI: > 100 µM
[12]
  TGI: 94.9 µM
[13]
  TGI: > 100 µM
[14]
  TGI: > 100 µM
[15]
  TGI: > 100 µM
[16]
  TGI: > 100 µM
[17]
  TGI: > 100 µM
[18]
  TGI: > 100 µM
[19]
  TGI: > 100 µM

## CN(C)CCCCN1c2ccccc2Sc2ccc(N=[N+]=[N-])cc21
[1]
  TGI: 23.5 µM
[2]
  TGI: 3.18 µM
[3]
  TGI: 3.06 µM
[4]
  TGI: 22.2 µM
[5]
  TGI: 8.39 µM
[6]
  TGI: 26.5 µM
[7]
  TGI: 16.8 µM
[8]
  TGI: 22.6 µM
[9]
  TGI: 18.4 µM
[10]
  TGI: 19 µM
[11]
  TGI: 24.7 µM
[12]
  TGI: 10 µM
[13]
  TGI: 19.9 µM
[14]
  TGI: 16.2 µM
[15]
  TGI: 16.8 µM
[16]
  TGI: 3.77 µM
[17]
  TGI: 18.2 µM
[18]
  TGI: 5.26 µM
[19]
  TGI: 27.7 µM

## CCCCc1c2c([n+]([O-])c3c1CCCC3)CCCC2
[20]
  TGI: > 100 µM
[1]
  TGI: > 100 µM
[2]
  TGI: > 100 µM
[4]
  TGI: > 100 µM
[5]
  TGI: > 100 µM
[6]
  TGI: > 100 µM
[7]
  TGI: > 100 µM
[8]
  TGI: > 100 µM
[10]
  TGI: > 100 µM
[11]
  TGI: > 100 µM
[14]
  TGI: > 100 µM
[15]
  TGI: > 100 µM
[19]
  TGI: > 100 µM

## CC1CC(=O)C(CC(=O)O)[C@H]1C(C(=O)C(=O)Nc1cc(Cl)ccc1Cl)[N+](=O)[O-] (stereo partly drawn)
[20]
  TGI: > 100 µM
[1]
  TGI: > 100 µM
[2]
  TGI: > 100 µM
[4]
  TGI: > 100 µM
[5]
  TGI: > 100 µM
[6]
  TGI: > 100 µM
[7]
  TGI: > 100 µM
[8]
  TGI: > 100 µM
[9]
  TGI: > 100 µM
[10]
  TGI: > 100 µM
[11]
  TGI: > 100 µM
[12]
  TGI: > 100 µM
[14]
  TGI: > 100 µM
[15]
  TGI: > 100 µM
[16]
  TGI: > 100 µM

## CC(=O)C1=C(C)N2C(=NC3=C(CCc4ccccc43)C2c2ccc(Cl)cc2)S1 (stereo not drawn)
[1]
  TGI: > 100 µM
[2]
  TGI: > 100 µM
[3]
  TGI: > 100 µM
[4]
  TGI: > 100 µM
[5]
  TGI: > 96.6 µM
[6]
  TGI: > 100 µM
[7]
  TGI: > 100 µM
[8]
  TGI: > 100 µM
[9]
  TGI: > 100 µM
[10]
  TGI: > 100 µM
[11]
  TGI: > 100 µM
[12]
  TGI: > 100 µM
[13]
  TGI: > 100 µM
[14]
  TGI: > 100 µM
[15]
  TGI: > 100 µM
[16]
  TGI: > 100 µM
[17]
  TGI: > 100 µM
[18]
  TGI: > 100 µM
[19]
  TGI: > 100 µM

## O=C(O)OC12CCCCCC1C(=O)C1CCCCC12 (stereo not drawn)
[20]
  TGI: > 100 µM
[1]
  TGI: > 100 µM
[3]
  TGI: > 100 µM
[4]
  TGI: > 100 µM
[5]
  TGI: > 100 µM
[6]
  TGI: > 100 µM
[8]
  TGI: > 100 µM
[10]
  TGI: > 100 µM
[11]
  TGI: > 100 µM
[12]
  TGI: > 100 µM
[14]
  TGI: > 100 µM
[15]
  TGI: > 100 µM
[16]
  TGI: > 100 µM
[19]
  TGI: > 100 µM

## O=c1oc2cc(O)ccc2c(O)c1C(c1ccc(/C=C/c2ccccc2)cc1)c1c(O)c2ccc(O)cc2oc1=O
[1]
  TGI: > 100 µM
[2]
  TGI: > 100 µM
[3]
  TGI: > 100 µM
[4]
  TGI: > 100 µM
[5]
  TGI: > 100 µM
[6]
  TGI: > 100 µM
[7]
  TGI: > 100 µM
[8]
  TGI: > 100 µM
[9]
  TGI: > 100 µM
[10]
  TGI: > 100 µM
[11]
  TGI: > 100 µM
[12]
  TGI: > 100 µM
[13]
  TGI: > 100 µM
[14]
  TGI: > 100 µM
[15]
  TGI: > 100 µM
[16]
  TGI: > 100 µM
[17]
  TGI: > 100 µM
[18]
  TGI: > 100 µM
[19]
  TGI: > 100 µM

## N#Cc1nc(CCC(C(=O)O)N2C(=O)c3ccccc3C2=O)oc1N (stereo not drawn)
[1]
  TGI: > 100 µM
[2]
  TGI: > 100 µM
[3]
  TGI: > 100 µM
[4]
  TGI: > 100 µM
[5]
  TGI: > 100 µM
[6]
  TGI: > 100 µM
[7]
  TGI: > 100 µM
[8]
  TGI: > 100 µM
[9]
  TGI: > 100 µM
[10]
  TGI: > 100 µM
[11]
  TGI: > 100 µM
[12]
  TGI: > 100 µM
[13]
  TGI: > 100 µM
[14]
  TGI: > 100 µM
[15]
  TGI: > 100 µM
[16]
  TGI: > 100 µM
[17]
  TGI: > 100 µM
[18]
  TGI: > 100 µM
[19]
  TGI: > 100 µM

## c1ccc2sc(C3(N4CCCCCC4)CCCCC3)cc2c1
[1]
  TGI: 44.6 µM
[2]
  TGI: 29.4 µM
[3]
  TGI: 53.6 µM
[4]
  TGI: 43.7 µM
[5]
  TGI: 33.3 µM
[6]
  TGI: > 100 µM
[7]
  TGI: 46.1 µM
[8]
  TGI: > 100 µM
[9]
  TGI: > 100 µM
[10]
  TGI: 56.2 µM
[11]
  TGI: 53.4 µM
[12]
  TGI: 62.1 µM
[13]
  TGI: 47.5 µM
[14]
  TGI: 45.1 µM
[15]
  TGI: 36.6 µM
[16]
  TGI: 45.7 µM
[17]
  TGI: > 100 µM
[18]
  TGI: 32.9 µM
[19]
  TGI: 41.5 µM

## CSC(SC)=C1Sc2cccc(Cl)c2S1
[20]
  TGI: > 100 µM
[1]
  TGI: > 100 µM
[2]
  TGI: 44.9 µM
[3]
  TGI: > 100 µM
[4]
  TGI: > 100 µM
[5]
  TGI: > 100 µM
[6]
  TGI: > 100 µM
[7]
  TGI: > 100 µM
[8]
  TGI: > 100 µM
[9]
  TGI: > 100 µM
[10]
  TGI: > 100 µM
[11]
  TGI: > 100 µM
[12]
  TGI: > 100 µM
[14]
  TGI: > 100 µM
[15]
  TGI: > 100 µM
[16]
  TGI: > 100 µM
[19]
  TGI: > 100 µM

Source: PubChem BioAssay (NCI)
